From patent US9346761B2, “Arginine methyltransferase inhibitors and uses thereof” (Epizyme, Inc., priority 2013, dated 2016) come the findings set out here.

pIC50: −log10 of the molar value. A value given as a limit tells only on which side of the number the result lay.

Assay [1] has as its target T1, Full-length human PRMT1 isoform 1 (Homo sapiens, UniProt Q99873).
T1 construct: GST-tagged PRMT1; made in house; host or cells: High Five insect cells (baculovirus, pFastBacI)
Put plainly: PRMT1 biochemical assay (3H-SAM Flashplate, peptide substrate). An excerpt:
General Materials. S-adenosylmethionine (SAM), S-adenosylhomocysteine (SAH), bicine, Tween20, dimethylsulfoxide (DMSO), bovine skin gelatin (BSG), and Tris(2-carboxyethyl)phosphine hydrochloride solution (TCEP) were purchased from Sigma-Aldrich at the highest level of purity possible. ^3H-SAM was purchase from American Radiolabeled Chemicals with a specific activity of 80 Ci/mmol. 384-well streptavidin Flashplates were purchased from PerkinElmer.
Protein Expression. Recombinant baculovirus were generated according to Bac-to-Bac kit instructions (Life Technologies). […] Infections were carried out at 27° C. for 48 hours, harvested by centrifugation, and stored at −80° C. for purification.
Protein Purification. […] GST-tagged PRMT1 was eluted with 50 mM Tris, 2 mM glutathione, pH 7.8, dialysed in buffer A and concentrated to 1 mg/mL.
(§1) General Procedure for PRMT1 Enzyme Assays on Peptide Substrates. The assays were all performed in a buffer consisting of 20 mM Bicine (pH=7.6), 1 mM TCEP, 0.005% BSG, and 0.002% Tween 20, prepared on the day of use. […] DMSO (1 ul) was added to Columns 11, 12, 23, 24, rows A-H for the maximum signal control and 1 ul of SAH, a known product and inhibitor of PRMT1, was added to columns 11, 12, 23, 24, rows I-P for the minimum signal control. A cocktail (40 ul) containing the PRMT1 enzyme was added by Multidrop Combi (Thermo-Fisher). The compounds were allowed to incubate with PRMT1 for 30 min at room temperature, then a cocktail (10 ul) containing SAM and peptide was added to initiate the reaction (final volume=51 ul). […] The assays were stopped by the addition of non-radiolabeled SAM (10 ul) to a final concentration of 300 uM, which dilutes the ^3H-SAM to a level where its incorporation into the peptide substrate is no longer detectable. 50 ul of the reaction in the 384-well polypropylene plate was then transferred to a 384-well Flashplate and the biotinylated peptides were allowed to bind to the streptavidin surface for at least 1 hour before being washed once with 0.1% Tween20 in a Biotek ELx405 plate washer. The plates were then read in a PerkinElmer TopCount plate reader to measure the quantity of ^3H-labeled peptide bound to the Flashplate surface, measured as disintegrations per minute (dpm) or alternatively, referred to as counts per minute (cpm).
(§2) Where dpm=disintegrations per minute, cmpd=signal in assay well, and min and max are the respective minimum and maximum signal controls.
(§3) Where top and bottom are the normally allowed to float, but may be fixed at 100 or 0 respectively in a 3-parameter fit. The Hill Coefficient normally allowed to float but may also be fixed at 1 in a 3-parameter fit. Y is the % inhibition and X is the compound concentration.

In another assay the target is T2, Full-length human PRMT6 (Homo sapiens, UniProt Q96LA8).
T2 construct: Flag-PRMT6-His was eluted with 200 ug/ml FLAG peptide in the same buffer; made in house; host or cells: HEK 293F cells (BacMam virus, pFastBacMam)
T2 sequence (Q96LA8 with tags, fused parts or gaps): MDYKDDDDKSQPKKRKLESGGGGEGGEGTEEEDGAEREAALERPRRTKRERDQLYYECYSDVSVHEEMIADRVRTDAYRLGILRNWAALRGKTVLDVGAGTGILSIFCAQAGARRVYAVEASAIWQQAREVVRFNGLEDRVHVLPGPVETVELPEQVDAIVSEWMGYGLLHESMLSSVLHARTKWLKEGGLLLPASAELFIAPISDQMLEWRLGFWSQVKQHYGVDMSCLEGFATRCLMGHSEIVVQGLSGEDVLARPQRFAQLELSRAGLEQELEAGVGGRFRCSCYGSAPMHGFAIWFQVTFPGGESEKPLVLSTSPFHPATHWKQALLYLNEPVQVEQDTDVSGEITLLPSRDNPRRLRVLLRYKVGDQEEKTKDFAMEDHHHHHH
The assay can be described thus: PRMT6 biochemical assay (3H-SAM Flashplate, peptide substrate).
Text: General Materials. S-adenosylmethionine (SAM), S-adenosylhomocysteine (SAH), bicine, Tween20, dimethylsulfoxide (DMSO), bovine skin gelatin (BSG), sodium butyrate and Tris(2-carboxyethyl)phosphine hydrochloride solution (TCEP) were purchased from Sigma-Aldrich at the highest level of purity possible. ^3H-SAM was purchase from American Radiolabeled Chemicals with a specific activity of 80 Ci/mmol. 384-well streptavidin Flashplates were purchased from PerkinElmer.
Substrates. Peptide representative of human histone H4 residues 36-50 was synthesized with an N-terminal linker-affinity tag motif and a C-terminal amide cap by 21st Century Biochemicals.
The amplified gene was subcloned into pFastBacMam (Viva Biotech).
Protein Expression. Recombinant baculovirus were generated according to Bac-to-Bac kit instructions (Life Technologies). […] Infections were carried out at 37° C. for 48 hours, harvested by centrifugation, and stored at −80° C. for purification.
Protein Purification. […] Column was washed with 20 mM imidazole in the same buffer and Flag-PRMT6-His was eluted with 150 mM imidazole. Pooled fractions were dialysed against buffer Ni-A and further purified by anti-flag M2 affinity chromatography. Flag-PRMT6-His was eluted with 200 ug/ml FLAG peptide in the same buffer. Pooled fractions were dialysed in 20 mM Tris, 150 mM NaCl, 10% glycerol and 5 mM β-mercaptoethanol, pH 7.8.
as §1, with “PRMT6” for “PRMT1”, “PRMT6,” for “PRMT1,”, “400” for “300”
as §2, §3

In assay [2] the test system is mono-methyl arginine in RKO cells. Put plainly: RKO methylation assay, In Cell Western for mono-methyl arginine and DNA content. Type of assay: cell-based. The note with it: Homo sapiens; In Cell Western, RKO cells, 72 hours, percent activation of mono-methyl arginine signal; read-out: EC30. An excerpt: RKO adherent cells were purchased from ATCC (American Type Culture Collection), Manassas, Va., USA. DMEM/Glutamax medium, penicillin-streptomycin, heat inactivated fetal bovine serum, 0.05% trypsin and D-PBS were purchased from Life Technologies, Grand Island, N.Y., USA. Odyssey blocking buffer, 800CW goat anti-rabbit IgG (H+L) antibody, and Licor Odyssey infrared scanner were purchased from Licor Biosciences, Lincoln, Nebr., USA. Mono-methyl arginine antibody was purchased from Cell Signaling Technology, Danvers, Mass., USA. Methanol was purchased from VWR, Franklin, Mass., USA. 10% Tween 20 was purchased from KPL, Inc., Gaithersburg, Md., USA. […] was purchased from Biostatus Limited, Leicestershire, UK.
RKO adherent cells were maintained in growth medium (DMEM/Glutamax medium supplemented with 10% v/v heat inactivated fetal bovine serum and 100 units/mL penicillin-streptomycin) and cultured at 37° C. under 5% CO2
Cell Treatment, in Cell Western (ICW) for Detection of Mono-Methyl Arginine and DNA Content. […] Compound (100 nL) from a 96-well source plate was added directly to 384 well cell plate. Plates were incubated at 37° C., 5% CO2 for 72 hours. After three days of incubation, plates were brought to room temperature outside of the incubator for ten minutes and blotted on paper towels to remove cell media. 50 μL of ice cold 100% methanol was added directly to each well and incubated for 30 min at room temperature. After 30 min, plates were transferred to a Biotek EL406 plate washer and washed 2 times with 100 μL per well of wash buffer (1×PBS). Next 60 μL per well of Odyssey blocking buffer (Odyssey Buffer with 0.1% Tween 20 (v/v)) were added to each plate and incubated 1 hour at room temperature. Blocking buffer was removed and 20 μL per well of primary antibody was added (mono-methyl arginine diluted 1:200 in Odyssey buffer with 0.1% Tween 20 (v/v)) and plates were incubated overnight (16 hours) at 4° C. Plates were washed 5 times with 100 μL per well of wash buffer. […] The plates were washed 5 times with 100 μL per well wash buffer then 2 times with 100 μL per well of water. Plates were allowed to dry at room temperature then imaged on the Licor Odyssey machine which measures integrated intensity at 700 nm and 800 nm wavelengths. Both 700 and 800 channels were scanned.
Calculations: First, the ratio for each well was determined by:
Each plate included fourteen control wells of DMSO only treatment (minimum activation) as well as fourteen control wells for maximum activation treated with 20 μM of a reference compound. The average of the ratio values for each control type was calculated and used to determine the percent activation for each test well in the plate. Reference compound was serially diluted three-fold in DMSO for a total of nine test concentrations, beginning at 20 μM. Percent activation was determined and EC30 curves were generated using triplicate wells per concentration of compound.

T1 sequence (Q99873 with tags, fused parts or gaps): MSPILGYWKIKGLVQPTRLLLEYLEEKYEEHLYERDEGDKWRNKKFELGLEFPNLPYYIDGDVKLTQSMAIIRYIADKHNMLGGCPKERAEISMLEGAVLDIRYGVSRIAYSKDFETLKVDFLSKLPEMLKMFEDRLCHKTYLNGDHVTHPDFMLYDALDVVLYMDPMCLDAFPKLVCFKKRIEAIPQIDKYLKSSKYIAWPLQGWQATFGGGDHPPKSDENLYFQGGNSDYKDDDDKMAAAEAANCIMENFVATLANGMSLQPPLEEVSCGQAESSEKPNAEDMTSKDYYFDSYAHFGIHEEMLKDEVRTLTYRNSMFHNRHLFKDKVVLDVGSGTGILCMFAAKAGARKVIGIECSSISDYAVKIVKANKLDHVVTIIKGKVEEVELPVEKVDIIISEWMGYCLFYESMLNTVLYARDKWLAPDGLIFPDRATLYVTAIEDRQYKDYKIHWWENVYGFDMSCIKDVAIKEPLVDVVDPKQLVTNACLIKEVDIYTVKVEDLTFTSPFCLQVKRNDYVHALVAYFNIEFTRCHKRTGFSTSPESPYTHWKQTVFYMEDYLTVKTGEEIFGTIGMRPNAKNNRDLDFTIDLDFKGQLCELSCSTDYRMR

What is called pIC50 is −log10 of the IC50, conventionally taken in molar units. A higher pIC50 goes with a small IC50. In general, EC30 refers to the concentration at which the effect reaches the 30% level. Take `COCCCOc1ccc(-c2n[nH]cc2CN(C)CCN)cc1` [Compound 179]: the pIC50 (in assay [1]; against Full-length human PRMT6) was over 7.00 each time. Further, the EC30 in assay [2] was under 3 µM.
In the case of `CNCCN(C)Cc1n[nH]cc1-c1ccc(Oc2cccc(C#N)c2)cc1` [Compound 267], the pIC50 (in assay [1]; at Full-length human PRMT6) was over 7.00 in each case. The EC30 in assay [2] is under 3 µM.
Regarding `CNCCN(C)Cc1n[nH]cc1-c1ccc(Oc2cccc(C(=O)NC)c2)cc1` [Compound 268], the pIC50 (in assay [1]; against Full-length human PRMT6) was over 7.00 in each case. The EC30 in assay [2] fell in the range of 3.01 to 12 µM.
Consider `CNCCN(C)Cc1n[nH]cc1-c1cc(C(C)C)cc(C(C)C)c1` [Compound 242], for which the pIC50 is 6.00 to 7.00 in assay [1] and 5.52 to 6.00 on Full-length human PRMT6. Besides, in assay [2], the EC30 was over 12 µM.
`CNCCN(C)Cc1n[nH]cc1-c1ccc(Oc2ccccc2C(=O)NC)cc1` [Compound 278]: on Full-length human PRMT6, the pIC50 was over 7.00. Also, in assay [2], the EC30 is 3.01 to 12 µM.
For `CN(CCN)Cc1c[nH]nc1-c1ccc(Oc2ccccc2)cc1` [Compound 200], the EC30 in assay [2] is under 3 µM.
`CNCCN(C)Cc1c[nH]nc1-c1ccc(Oc2ccccc2F)cc1` [Compound 237]: the pIC50 (in assay [1]; on Full-length human PRMT6) was over 7.00 throughout. In addition, in assay [2], the EC30 was under 3 µM.
At Full-length human PRMT6, `CN(CCN)Cc1c[nH]nc1-c1ccc(N2CCN(C(=O)Cc3ccccc3)CC2)cc1` [Compound 190] had a negative-log IC50 (pIC50) of over 7.00. For the same compound, the EC30 in assay [2] lay in the range of 3.01 to 12 µM.
In the case of `CN(CCN)Cc1c[nH]nc1-c1ccc(Oc2ccccc2F)cc1` [Compound 259], the pIC50 (in assay [1]; against Full-length human PRMT6) was over 7.00 each time. In addition, the EC30 in assay [2] is under 3 µM.
The compound `COCCn1cnc(-c2ccc(C#N)cc2)c1CN(C)CCN` [Compound 223] had a pIC50 in assay [1] of under 5.00. Also, the EC30 in assay [2] is over 12 µM.
`CC(C)Oc1ccc(-c2c(CN(C)CCN)cnn2C)cc1` [Compound 177]: the negative-log IC50 (pIC50) (in assay [1]; at Full-length human PRMT6) was over 7.00 in each case. In assay [2], the EC30 is under 3 µM.
Regarding `CN(CCN)Cc1c[nH]nc1-c1ccc(OCCCN2CCOCC2)cc1` [Compound 186], the pIC50 on Full-length human PRMT6 was over 7.00. Further, the concentration for an effect of 30% (EC30) in assay [2] was over 12 µM.
`CNCCN(C)Cc1c(-c2ccc(OCCCOC)cc2)cnn1C` [Compound 276]: the pIC50 in assay [1] was under 5.00; on Full-length human PRMT6, 5.52 to 6.00. The EC30 in assay [2] is over 12 µM.
In the same order, the values of `CNCCN(C)Cc1c[nH]nc1-c1ccc(Oc2ccccc2C(=O)NC)cc1` [Compound 274] are over 7.00, over 7.00 and under 3 µM.
On the same counts, the results for `CNCCN(C)Cc1c[nH]nc1-c1cc(C(C)C)cc(C(C)C)c1` [Compound 229, N^1-((3-(3,5-diisopropylphenyl)-1H-pyrazol-4-yl)methyl)-N^1,N^2-dimethylethane-1,2-diamine] are over 7.00, 6.00 to 7.00 and 3.01 to 12 µM.
On the same counts, the results for `CNCCN(C)Cc1n[nH]cc1-c1ccc(Oc2cccc(OC)c2)cc1` [Compound 239] are over 7.00, over 7.00 and under 3 µM.
As for `CNCCN(C)Cc1cnn(C)c1-c1ccc(OC(C)C)c(Cl)c1` [Compound 220, N^1-((5-(3-chloro-4-isopropoxyphenyl)-1-methyl-1H-pyrazol-4-yl)methyl)-N^1,N^2-dimethylethane-1,2-diamine], at Full-length human PRMT6, the pIC50 was over 7.00. Also, the EC30 in assay [2] was under 3 µM.
On the same counts, the results for `CNCCN(C)Cc1cn[nH]c1-c1ccc(OC(C)C)c(Cl)c1` [Compound 201] are over 7.00 and under 3 µM.
On the same counts, the results for `CNCCN(C)Cc1n[nH]cc1-c1ccc(Oc2cccc(C(=O)N(C)C)c2)cc1` [Compound 269] are over 7.00 and over 12 µM.
In the same order, the values of `CNCCN(C)Cc1c[nH]nc1-c1ccc(Oc2cccc(C(=O)N(C)C)c2)cc1` [Compound 264] are over 7.00 and 3.01 to 12 µM.
`CNCCN(C)Cc1c[nH]nc1-c1ccc(OC(C)C)cc1` [Compound 19, N^1-((3-(4-isopropoxyphenyl)-1H-pyrazol-4-yl)methyl)-N^1,N^2-dimethylethane-1,2-diamine] showed a pIC50 at Full-length human PRMT6 of over 7.00. The EC30 in assay [2] is under 3 µM.
